Experimental data as given in US8563714B2, “Bridged spiro [2.4] heptane derivatives as ALX receptor and/or FPRL2 agonists” (Actelion Pharmaceuticals Ltd., priority 2009, dated 2013).

Tests used:
human FPRL2 = molecular target: T1, human FPRL2 (Homo sapiens, UniProt P25089); experiment: Intracellular calcium measurements (FLIPR), agonistic activity in HEK293-hFPRL2-Gα16 cells; type: cell-based; conditions: Fluo-4 calcium FLIPR, normalized to GLY14-Humanin 100 nM
T1 construct: expressed in transfected cells; host or cells: HEK293 (HEK293-hFPRL2-Gα16)
T1 sequence (P25089 1-353): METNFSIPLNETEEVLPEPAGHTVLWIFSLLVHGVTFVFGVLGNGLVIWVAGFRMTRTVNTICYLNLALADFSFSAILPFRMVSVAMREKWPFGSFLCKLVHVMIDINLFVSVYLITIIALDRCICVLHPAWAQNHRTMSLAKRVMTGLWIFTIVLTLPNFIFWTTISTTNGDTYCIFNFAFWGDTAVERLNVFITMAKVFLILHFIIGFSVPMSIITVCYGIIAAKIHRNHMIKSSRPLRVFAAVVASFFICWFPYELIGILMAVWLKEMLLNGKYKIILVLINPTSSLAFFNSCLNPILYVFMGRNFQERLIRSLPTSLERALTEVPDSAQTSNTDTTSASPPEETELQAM
Summary of the method: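 Peak values after baseline subtraction are expressed relative to 100 nM Gly14-Humanin; compounds diluted in assay buffer from 10 mM DMSO stocks.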

human ALX receptor = molecular target: T2, human ALX receptor (Homo sapiens, UniProt P25090); experiment: Intracellular calcium measurements (FLIPR), agonistic activity in HEK293-hALXR-Gα16 cells; type: cell-based; conditions: Fluo-4 calcium FLIPR, normalized to WKYMVm 10 nM
T2 construct: expressed in transfected cells; host or cells: HEK293 (HEK293-hALXR-Gα16)
T2 sequence (P25090 1-351): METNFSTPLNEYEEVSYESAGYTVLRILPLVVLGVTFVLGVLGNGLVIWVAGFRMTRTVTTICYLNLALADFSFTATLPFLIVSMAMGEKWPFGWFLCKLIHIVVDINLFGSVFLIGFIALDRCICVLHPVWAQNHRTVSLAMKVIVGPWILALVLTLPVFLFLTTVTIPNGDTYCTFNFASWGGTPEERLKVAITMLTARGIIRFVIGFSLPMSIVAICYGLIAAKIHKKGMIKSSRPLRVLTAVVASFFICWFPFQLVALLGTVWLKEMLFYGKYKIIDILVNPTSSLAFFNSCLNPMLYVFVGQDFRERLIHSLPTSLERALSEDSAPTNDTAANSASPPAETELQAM
Summary of the method: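 Agonist-induced calcium flux was recorded by FLIPR (488/540 nm) in HEK293-hALXR-Gα16 cells pre-loaded with Fluo-4 AM (1 μM, 60 min, 37°C). Peak signal above baseline, after subtracting buffer addition, was expressed relative to WKYMVm at 10 nM final.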

Compound `CC(=O)c1csc(CNC(=O)[C@H]2[C@H](C(=O)NCCCN3CCCC3)[C@H]3C=C[C@@H]2C32CC2)n1` (racemic) [Example 264, (5R*)—N^5-(4-Acetyl-thiazol-2-yl-methyl)-(6R*)—N^6-(3-pyrrolidino-propyl)-(4S*,7R*)-[4,7-ethenylene-spiro[2.4]heptane]-5,6-dicarboxamide] has an EC50 (human FPRL2) of 835 nM and an EC50 (human ALX receptor) of 140 nM.
With `CN1CCN(CCCNC(=O)[C@H]2[C@H](C(=O)Nc3ncc(Br)s3)[C@@H]3C=C[C@H]2C32CC2)CC1` (racemic) [Example 265, (5R*)—N^5-(5-Bromothiazol-2-yl)-(6R*)—N^6-(3-(4-methylpiperazin-1-yl)-propyl)-(4S*,7R*)-[4,7-ethenylene-spiro[2.4]heptane]-5,6-dicarboxamide] the EC50 (human FPRL2) was 462 nM and the EC50 (human ALX receptor) was 49 nM.
For `CC(=O)c1csc(CNC(=O)[C@H]2[C@H](C(=O)NCCN(C)C)[C@H]3C=C[C@@H]2C32CC2)n1` (racemic) [Example 266, (5R*)—N^5-(4-Acetyl-thiazol-2-yl-methyl)-(6R*)—N^6-(2-dimethylamino-ethyl)-(4S*,7R*)-[4,7-ethenylene-spiro[2.4]heptane]-5,6-dicarboxamide], the EC50 (human FPRL2) was 1210 nM and the EC50 (human ALX receptor) was 65 nM.
Work on `CC(=O)c1csc(CNC(=O)[C@H]2[C@H](C(=O)NCCCN(C)C)[C@H]3C=C[C@@H]2C32CC2)n1` (racemic) [Example 267, (5R*)—N^5-(4-Acetyl-thiazol-2-yl-methyl)-(6R*)—N^6-(3-dimethylamino-propyl)-(4S*,7R*)-[4,7-ethenylene-spiro[2.4]heptane]-5,6-dicarboxamide] yielded an EC50 (human FPRL2) of 15300 nM and an EC50 (human ALX receptor) of 288 nM.
`CC(=O)c1csc(CNC(=O)[C@H]2[C@H](C(=O)NCCCN3CCN(C)CC3)[C@H]3C=C[C@@H]2C32CC2)n1` (racemic) [Example 268, (5R*)—N^5-(4-Acetyl-thiazol-2-yl-methyl)-(6R*)—N^6-(3-(4-methylpiperazin-1-yl)-propyl)-(4S*,7R*)-[4,7-ethenylene-spiro[2.4]heptane]-5,6-dicarboxamide] was tested, and the EC50 (human FPRL2) was 22900 nM and the EC50 (human ALX receptor) was 477 nM.
In the case of `CC(=O)c1csc(CNC(=O)[C@H]2[C@H](C(=O)NCCN3CCNC3=O)[C@H]3C=C[C@@H]2C32CC2)n1` (racemic) [Example 269, (5R*)—N^5-(4-Acetyl-thiazol-2-yl-methyl)-(6R*)—N^6-((2-imidazolidin-2-on)-1-yl-ethyl)-(4S*,7R*)-[4,7-ethenylene-spiro[2.4]heptane]-5,6-dicarboxamide], the EC50 (human FPRL2) is reported as 3550 nM and the EC50 (human ALX receptor) is reported as 82 nM.
With `CCN(CC)CCCCNC(=O)[C@H]1[C@H](C(=O)Nc2ncc(Br)s2)[C@@H]2C=C[C@H]1C21CC1` (racemic) [Example 270, (5R*)—N^5-(5-Bromothiazol-2-yl)-(6R*)—N^6-(4-diethylamino-butyl)-(4S*,7R*)-[4,7-ethenylene-spiro[2.4]heptane]-5,6-dicarboxamide] the EC50 (human FPRL2) was 396 nM and the EC50 (human ALX receptor) was 54 nM.
With `O=C(NCCF)[C@H]1[C@H](C(=O)NCc2ccc(Br)cc2)[C@@H]2C=C[C@H]1C21CC1` (racemic) [Example 271, (5R*)—N^5-(4-Bromophenyl-methyl)-(6R*)—N^6-(2-fluoroethyl)-(4S*,7R*)-[4,7-ethenylene-spiro[2.4]heptane]-5,6-dicarboxamide] the EC50 (human FPRL2) was over 25000 nM and the EC50 (human ALX receptor) was 673 nM.
`CN1CCN(CCCNC(=O)[C@H]2[C@H](C(=O)NCc3ccc(Br)cc3)[C@@H]3C=C[C@H]2C32CC2)CC1` (racemic) [Example 273, (5R*)—N^5-(4-Bromophenyl-methyl)-(6R*)—N^6-(3-(4-methylpiperazin-1-yl)-propyl)-(4S*,7R*)-[4,7-ethenylene-spiro[2.4]heptane]-5,6-dicarboxamide] gave an EC50 (human FPRL2) of 432 nM and an EC50 (human ALX receptor) of 213 nM.
